According to patent publication US11077090B2, “Compounds and compositions and uses thereof” (Sunovion Pharmaceuticals Inc., priority 2016, dated 2021):
Read-outs that look alike come from different tables or passages of the source.

Tested on: compound-treated mice
Assay: Neuropharmacological assay (SmartCube): behavioral activity signature and minimal effective dose
Format: in vivo
Conditions: for minimal effective dose: Mus musculus, ip; for AD: ADHD (probability of activity signature) / AG: analgesic (probability of activity signature) / AX: anxiolytic (probability of activity signature) / CE: cognitive enhancer (probability of activity signature) / DP: anti-depressant (probability of activity signature) / MS: mood stabilizer (probability of activity signature) / PS: anti-psychotic (probability of activity signature) / SD: sedative hypnotic (probability of activity signature) / UN: uncharacterized CNS activity (probability of activity signature): i.p. 15 min before test, most efficacious dose(s)
Text: Neurosci. 2011 Sep. 9; 5:103 (doi: 10.3389/fnins.2011.00103) (“Roberds”). As reported in Roberds, because psychiatric diseases generally result from disorders of cell-cell communication or circuitry, intact systems are useful in detecting improvement in disease-relevant endpoints. These endpoints are typically behavioral in nature, often requiring human observation and interpretation. To facilitate testing of multiple compounds for behavioral effects relevant to psychiatric disease, PsychoGenics, Inc. (Tarrytown, N.Y., “PGI”) developed SmartCube™, an automated system in which behaviors of compound-treated mice are captured by digital video and analyzed with computer algorithms. (D. Brunner et al., Drug Discov. Today 2002, 7:S107-S112). PGI Analytical Systems uses data from SmartCube™ to compare the behavioral signature of a test compound to a database of behavioral signatures obtained using a large set of diverse reference compounds. (The composition of the database as well as validation of the method is further described in Roberds). In this way, the neuropharmacological effects of a test compound can be predicted by similarity to major classes of compounds, such as antipsychotics, anxiolytics and antidepressants.
The SmartCube™ system produces an activity signature indicating the probability that the activity of the test compound at the administered dose matches a given class of neuropharmacological agents. (See, e.g., Roberds, FIGS. 2 and 3). The test compound is simultaneously compared against multiple classes of agents; thus, a separate probability is generated for each behavioral effect measured (e.g., anxiolytic activity, analgesic activity, etc.). In the table below, these probabilities are reported for each behavioral effect measured as follows:
where LOQ is the limit of quantification.
Provided compounds were dissolved in a mixture of Pharmasolve™ (N-methyl-2-pyrrolidone), polyethylene glycol and propylene glycol, and were injected i.p. 15 min. before the behavioral test. For each compound, injections were administered at 3 different doses. For each behavioral effect measured, results for the most efficacious dose(s) are presented. In the table below, DP: anti-depressant; AX: anxiolytic; SD: sedative hypnotic; PS: anti-psychotic; MS: mood stabilizer; AD: ADHD; CE: cognitive enhancer; AG: analgesic; UN: uncharacterized CNS activity.
The potency of many of the compounds in the table was also determined in the SmartCube™ system. Test compounds were routinely examined at dose levels of 0.3, 1, 3, 10 and 30 mg per kg (mpk), although the dose range was increased or decreased if necessary to obtain a full dose response curve. A compound's minimal effective dose (MED) is a measure of the compounds potency. The MED was defined as the dose (in mpk) having 50% or more total activity in SmartCube.

[1] = MED = dose having 50% or more total activity, read-out: Potency: minimal effective dose (MED)

Row | Structure (SMILES) | minimal effective dose [1] | AD: ADHD (probability of activity signature) | AG: analgesic (probability of activity signature) | AX: anxiolytic (probability of activity signature) | CE: cognitive enhancer (probability of activity signature) | DP: anti-depressant (probability of activity signature) | MS: mood stabilizer (probability of activity signature) | PS: anti-psychotic (probability of activity signature) | SD: sedative hypnotic (probability of activity signature) | UN: uncharacterized CNS activity (probability of activity signature) | minimal effective dose (MED = dose having 50% or more total activity, read-out: Potency: minimal effective dose (MED), binned) | Potency: minimal effective dose (MED), binned (MED = dose having 50% or more total activity)
1 | Cc1cccc2c1COC[C@H]2N (single isomer, unassigned) [Example 129] | 3 to 10 mg/kg | + (LOQ ≤ + <5%) | ++ (5% ≤ ++ <25%) | +++ (25% ≤ +++ <50%) | ++ (5% ≤ ++ <25%) | ++ (5% ≤ ++ <25%) | + (LOQ ≤ + <5%) | ++ (5% ≤ ++ <25%) | ++ (5% ≤ ++ <25%) | +++ (25% ≤ +++ <50%) | – | –
2 | Cc1cccc2c1COC[C@@H]2N (single isomer, unassigned) [Example 130] | 3 to 10 mg/kg | + (LOQ ≤ + <5%) | ++ (5% ≤ ++ <25%) | ++ (5% ≤ ++ <25%) | ++ (5% ≤ ++ <25%) | ++ (5% ≤ ++ <25%) | + (LOQ ≤ + <5%) | +++ (25% ≤ +++ <50%) | ++ (5% ≤ ++ <25%) | ++++ (50% ≤ ++++) | – | –
3 | Cc1cccc2c1[C@H](N)COC2 (single isomer, unassigned) [Example 133] | < 3 mg/kg | + (LOQ ≤ + <5%) | ++ (5% ≤ ++ <25%) | ++ (5% ≤ ++ <25%) | ++ (5% ≤ ++ <25%) | ++ (5% ≤ ++ <25%) | + (LOQ ≤ + <5%) | +++ (25% ≤ +++ <50%) | + (LOQ ≤ + <5%) | ++++ (50% ≤ ++++) | – | –
4 | Cc1cccc2c1[C@@H](N)COC2 (single isomer, unassigned) [Example 134] | 3 to 10 mg/kg | + (LOQ ≤ + <5%) | ++ (5% ≤ ++ <25%) | +++ (25% ≤ +++ <50%) | ++ (5% ≤ ++ <25%) | ++ (5% ≤ ++ <25%) | + (LOQ ≤ + <5%) | ++ (5% ≤ ++ <25%) | ++ (5% ≤ ++ <25%) | +++ (25% ≤ +++ <50%) | – | –
5 | CN[C@@H]1COCc2cccc(C)c21 (single isomer, unassigned) [Example 137] | 3 to 10 mg/kg | + (LOQ ≤ + <5%) | ++ (5% ≤ ++ <25%) | ++ (5% ≤ ++ <25%) | ++ (5% ≤ ++ <25%) | + (LOQ ≤ + <5%) | + (LOQ ≤ + <5%) | ++ (5% ≤ ++ <25%) | + (LOQ ≤ + <5%) | +++ (25% ≤ +++ <50%) | – | –
6 | CN[C@H]1COCc2cccc(C)c21 (single isomer, unassigned) [Example 138] | 3 to 10 mg/kg | + (LOQ ≤ + <5%) | ++ (5% ≤ ++ <25%) | ++ (5% ≤ ++ <25%) | ++ (5% ≤ ++ <25%) | ++ (5% ≤ ++ <25%) | + (LOQ ≤ + <5%) | ++ (5% ≤ ++ <25%) | ++ (5% ≤ ++ <25%) | +++ (25% ≤ +++ <50%) | – | –
7 | CN[C@H]1COCc2c(Cl)cccc21 (single isomer, unassigned) [Example 150] | 3 to 10 mg/kg | + (LOQ ≤ + <5%) | ++ (5% ≤ ++ <25%) | ++ (5% ≤ ++ <25%) | + (LOQ ≤ + <5%) | + (LOQ ≤ + <5%) | + (LOQ ≤ + <5%) | ++ (5% ≤ ++ <25%) | + (LOQ ≤ + <5%) | ++++ (50% ≤ ++++) | – | –
8 | C[C@H]1OCc2ccccc2[C@@H]1N (single isomer, unassigned) [Example 151] | 3 to 10 mg/kg | + (LOQ ≤ + <5%) | ++ (5% ≤ ++ <25%) | +++ (25% ≤ +++ <50%) | ++ (5% ≤ ++ <25%) | ++ (5% ≤ ++ <25%) | + (LOQ ≤ + <5%) | ++ (5% ≤ ++ <25%) | ++ (5% ≤ ++ <25%) | ++ (5% ≤ ++ <25%) | – | –
9 | C[C@@H]1OCc2ccccc2[C@@H]1N (single isomer, unassigned) [Example 153] | 3 to 10 mg/kg | + (LOQ ≤ + <5%) | ++ (5% ≤ ++ <25%) | ++ (5% ≤ ++ <25%) | ++ (5% ≤ ++ <25%) | + (LOQ ≤ + <5%) | + (LOQ ≤ + <5%) | ++ (5% ≤ ++ <25%) | + (LOQ ≤ + <5%) | +++ (25% ≤ +++ <50%) | – | –
10 | C[C@H]1OCc2ccccc2[C@H]1N (single isomer, unassigned) [Example 154] | 3 to 10 mg/kg | + (LOQ ≤ + <5%) | ++ (5% ≤ ++ <25%) | ++ (5% ≤ ++ <25%) | ++ (5% ≤ ++ <25%) | + (LOQ ≤ + <5%) | + (LOQ ≤ + <5%) | ++ (5% ≤ ++ <25%) | ++ (5% ≤ ++ <25%) | ++++ (50% ≤ ++++) | – | –
11 | Cc1ccc2c(c1)[C@@H](N)[C@@H](C)OC2 (single isomer, unassigned) [Example 158] | – | + (LOQ ≤ + <5%) | ++ (5% ≤ ++ <25%) | ++ (5% ≤ ++ <25%) | ++ (5% ≤ ++ <25%) | ++ (5% ≤ ++ <25%) | + (LOQ ≤ + <5%) | +++ (25% ≤ +++ <50%) | ++ (5% ≤ ++ <25%) | ++ (5% ≤ ++ <25%) | 3 to 10 mg/kg | –
12 | Cl.NC1COCc2ccc3c(c21)C1CCC3C1 (single isomer, unassigned) [Example 161] | – | + (LOQ ≤ + <5%) | ++ (5% ≤ ++ <25%) | +++ (25% ≤ +++ <50%) | ++ (5% ≤ ++ <25%) | ++ (5% ≤ ++ <25%) | + (LOQ ≤ + <5%) | ++ (5% ≤ ++ <25%) | + (LOQ ≤ + <5%) | ++ (5% ≤ ++ <25%) | – | B (>3 to 10 mpk)
